Biological target: T1, rat mGluR1a receptor (Rattus norvegicus, UniProt P23385)
T1 construct: expressed in transfected cells; host or cells: Chinese Hamster Ovary cells (CHO-1a), stably transfected
Test: mGluR1 assay: antagonism of glutamate-evoked calcium internalisation in CHO-1a cells (FLIPr)
Type: cell-based
Settings: CHO cells stably transfected with rat mGluR1a; 40 μM glutamate challenge; IC50 values converted to modified Ki values; read-out: binding affinities (mGluR1 assay)
Description: The ability of compounds of formula (I) to antagonise glutamate-evoked increases in calcium internalisation in an mGluR1 expressing cell line may be measured using the assay described below.
Chinese Hamster Ovary cells stably-transfected with the rat mGluR1a receptor (CHO-1a) were used in the assay. CHO-1a cells were seeded onto shallow 96 well plates and assayed at a confluency of 80-90%. Cells were loaded with Fluo-3-AM dye (8.8 μM final concentration; excitation 488 nm, emission 530 nm) in the presence of probenecid (2.5 mM), for 45-90 minutes at 37° C., after which time excess dye was removed by washing. The cell plate was then loaded onto a fluorometric imaging plate reader (FLIPr, Molecular Devices). Baseline readings were measured for 30 seconds. Test compounds were added by the FLIPr and allowed to equilibrate for 5 minutes before the addition of a 40 μM glutamate challenge (this was the approximate ED90 for glutamate against the receptor expressed in these cells). Readings were taken for a further 2 minutes. Measurements were made of the area of peak obtained in response to the glutamate addition and inhibition curves were constructed. Glutamate dose-response curves were included on each experimental day to allow IC50 values to be converted to modified Ki values.

T1 sequence (P23385 19-1199): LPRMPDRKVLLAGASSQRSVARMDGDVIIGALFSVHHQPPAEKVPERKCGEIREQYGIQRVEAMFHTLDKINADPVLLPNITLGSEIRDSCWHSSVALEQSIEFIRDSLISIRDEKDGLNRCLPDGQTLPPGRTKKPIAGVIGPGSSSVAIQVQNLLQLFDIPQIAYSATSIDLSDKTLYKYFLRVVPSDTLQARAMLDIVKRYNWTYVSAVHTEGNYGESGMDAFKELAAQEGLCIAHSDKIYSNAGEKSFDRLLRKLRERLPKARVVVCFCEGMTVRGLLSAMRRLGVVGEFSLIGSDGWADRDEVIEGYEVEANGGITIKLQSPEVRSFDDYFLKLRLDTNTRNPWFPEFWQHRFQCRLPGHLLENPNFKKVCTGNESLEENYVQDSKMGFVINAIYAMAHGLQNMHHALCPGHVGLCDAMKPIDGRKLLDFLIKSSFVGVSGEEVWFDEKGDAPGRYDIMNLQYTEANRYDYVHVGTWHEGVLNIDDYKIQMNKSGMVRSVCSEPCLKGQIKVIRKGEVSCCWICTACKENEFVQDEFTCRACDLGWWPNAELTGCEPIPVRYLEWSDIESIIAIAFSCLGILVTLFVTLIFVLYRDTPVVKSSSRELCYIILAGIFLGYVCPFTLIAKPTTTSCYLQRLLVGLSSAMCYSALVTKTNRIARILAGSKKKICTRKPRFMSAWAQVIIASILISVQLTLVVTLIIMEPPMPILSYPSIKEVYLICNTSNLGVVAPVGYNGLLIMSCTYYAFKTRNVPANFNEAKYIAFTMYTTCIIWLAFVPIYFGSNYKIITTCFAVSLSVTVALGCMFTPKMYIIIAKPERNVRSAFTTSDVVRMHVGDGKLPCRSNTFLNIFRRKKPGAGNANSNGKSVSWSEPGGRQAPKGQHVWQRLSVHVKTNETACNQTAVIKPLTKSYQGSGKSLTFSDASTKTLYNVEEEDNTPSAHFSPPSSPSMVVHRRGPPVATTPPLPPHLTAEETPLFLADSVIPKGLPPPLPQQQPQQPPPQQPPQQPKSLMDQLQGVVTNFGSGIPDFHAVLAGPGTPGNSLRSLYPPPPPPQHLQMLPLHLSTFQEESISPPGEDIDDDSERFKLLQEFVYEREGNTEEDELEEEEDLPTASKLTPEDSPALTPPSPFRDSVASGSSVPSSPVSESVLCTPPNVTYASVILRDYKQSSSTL

Ki [nM] | Compound
3 | OC1CCN(c2cc3c(NC4CCCCCC4)ncnc3cn2)CC1 [Example 1, 1-(4-Cycloheptylamino-pyrido[3,4-d]pyrimidin-6-yl)-piperidin-4-ol]
2 | OCCCNc1cc2c(NC3CCCCCC3)ncnc2cn1 [Example 3]

— patent US20050038047A1, “Azaquinazoline derivatives” (priority 2003, published 2005)
